Target: T1, recombinant human TCTP (Homo sapiens, UniProt P13693)
T1 construct: gene TPT1; recombinant; RED-NHS fluorescently labelled for MST
T1 sequence (P13693 1-172): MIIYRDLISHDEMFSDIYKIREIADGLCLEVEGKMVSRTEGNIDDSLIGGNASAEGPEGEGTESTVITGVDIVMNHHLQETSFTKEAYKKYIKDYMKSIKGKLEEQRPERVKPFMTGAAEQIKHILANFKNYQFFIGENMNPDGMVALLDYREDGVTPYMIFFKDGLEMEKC
Assay: microscale thermophoresis
Type: binding

SMILES	Kd [µM]
CN[C@H]1CC[C@@H](c2ccc(Cl)c(Cl)c2)c2ccccc21 [sertraline]	15.4 ± 1.4
CSc1ccc2c(c1)N(CCC1CCCCN1C)c1ccccc1S2 (centres unmarked) [thioridazine]	5.39 ± 2.1

From article PMC11014985, “TCTP regulates genotoxic stress and tumorigenicity via intercellular vesicular signaling” (EMBO Reports, 2024)
